According to patent US6756054B1, “Polycationic sterol derivatives as transfection agents” (IC-VEC Limited, priority 1996, dated 2004):

What was measured:
[1] = system: CFT1 cells; experiment: in vitro transfection of CFT1 cells with pCF1-βGal plasmid by cationic liposomes (DC-Chol analogue/DOPE), β-galactosidase expression; type: cell-based; conditions: for rank of DC-Chol analogues for in vitro gene delivery: most effective triamine, tetramine and pentamine; for gene delivery efficiency in vitro over and above DC-Chol/DOPE liposomes: pCF1-βGal plasmid, liposomes with DOPE, relative to DC-Chol/DOPE liposomes formulated in a similar way (FIG. 24)
Description: FIG. 23 is an example of in vitro optimisation of pCF1-βGal plasmid transfection of CFT1 cells in vitro using complexes of pCF1-βGal and cationic liposomes formulated from DC-Chol analogue 8f′ and DOPE 2 (1:1) molar ratio. CFT1 cells were transfected with an array of different cationic liposome and plasmid ratios in a 96-well plate. The extent of transfection in each well was determined after 2 days by measuring the levels of β-galactosidase expression. Plasmid DNA concentration is expressed as the concentration of nucleotides assuming an average nucleotide FWt of 330. Cationic liposome concentration is expressed in terms of the concentration of the constituent DC-Chol analogue 8f′ alone.
FIG. 24 presents rank order of DC-Chol polyamine analogues transfecting CFT1 cells in vitro with the pCF1-βGal plasmid. Gene delivery activity is expressed as a proportion of the activity measured with standard liposomes containing DC-Chol 1 and DOPE 2. The data shown are the averages of four separate experiments, each performed in triplicate.
The ratios in curved brackets refer to the DC-Chol analogue:DOPE 2 molar ratio used to formulate the liposomes. The numbers in square brackets refer to compound serial numbers. Where appropiate DC-Chol analogue name abbreviations are also included (see experimental).
(§1) The ability of cationic liposomes containing the different DC-Chol polyamine analogues to mediate gene delivery was analysed both in vitro and in vivo. Cationic liposomes were formulated by hydrating a dried lipid film, containing DC-Cholanalogue and DOPE 2 in an appropriate molar ratio of either 1:0, 1:1, 1:2 or 2:1 respectively. and vortex mixing.^[32] Cationic liposome/plasmid DNA complexes were then prepared by adding appropriately diluted cationic liposome suspensions into equal volumes of aqueous plasmid DNA solutions at 30° C. and allowing the mixture to equilibrate to ambient temperature over 15 min.^[32] In vitro studies were then performed with immortalised cystic fibrosis airway epithelial (CFT1) cells followed by in vivo studies in which cationic liposome/plasmid DNA complexes were instilled intranasally into the lungs of female BALB/c mice.^[32] Typically, cationic liposome gene delivery was first optimised in vitro so as to establish the best molar ratio of cationic liposome to plasmid DNA (DNA concentration was expressed as nucleotide concentration) as well as the best absolute quantities of both, as illustrated (FIG. 23). This optimised combination was then tested in vivo. The in vitro results are shown (FIG. 24). […] The analogues were 8a′, 8b′, 8e′, 8f′, 13a′ and 17b′, the first four being triamines, the fifth a tetramine and the sixth a pentamine. With one exception, 8f′, these polyamine analogues contain inter-nitrogen methylene group spacings not normally associated with the natural polyamines spermidine 18′ (see for example FIG. 29), spermine 19′ (see for example FIG. 29) and pentamine 20′ (see for example FIG. 29) upon which these structures are based. In vivo (FIG. 25), the best DC-Chol analogues were 13c′, 13f′ and especially 17a′. Both 17a′ and 13c′ also contain unnatural methylene group spacings.
For the in vitro and in vivo tests, a dried lipid film containing the given DC-Chol analogue and DOPE 2 (in either a 1:0, 1:1, 1:2 or 2:1 respective molar ratio), was hydrated for 10 min in sterile pyrogen-free water and then liposomes were produced by 2 min vortex mixing. The average diameter was between 200-400 nm.^[32] Cationic liposomes containing DC-Chol 1 and DOPE 2 were formulated in the same way described previously.^[24, 36]
Cationic liposome/plasmid DNA complexes were then prepared as follows.
Both cationic liposome suspensions and DNA (either pCF1-βGal plasmid expressing β-galactosidase or pCF1-CAT expressing chloramphenicol acetyl transferase)^[32] solutions were separately pre-incubated for 5 min at 30° C., before being diluted to the appropriate final concentrations and then combined. […]

[2] = system: lungs of female BALB/c mice; experiment: in vivo transfection of mouse lung with pCF1-CAT plasmid by intranasally instilled cationic liposome/DNA complexes, CAT activity in lung homogenates; conditions: for rank of DC-Chol analogues for in vivo gene delivery: female BALB/c mice lung, pCF1-CAT plasmid, optimal formulation, CAT activity after 2 days (FIG. 25)
Description: FIG. 25 presents the rank order of DC-Chol polyamine analogues transfecting the lungs of female BALB/c mice with the pCF1-CAT plasmid. Mice were instilled with a solution of the plasmid (4 mM nucleotide concentration) and the optimal quantity and ratio of cationic liposome, in a total volume of 100 μl. Gene delivery activity was determined as a function of chloramphenicol acetyl transferase activity in lung homogenates after 2 days.
Data points were from separate experiments with each optimal formulation tested in 4 BALB/c mice. The ratios in curved brackets refer to the DC-Chol analogue:DOPE 2 molar ratio. The numbers in square brackets refer to compound serial numbers. Where appropiate DC-Chol analogue name abbreviations are also included (see experimental).
as §1, with “spacings. […]” for “spacings.”

[3] = reported; cited from earlier work
[4] = mouse lung, pCF1-CAT plasmid (FIG. 25)

Row | Compound | rank of DC-Chol analogues for in vitro gene delivery [1] | gene delivery efficiency in vitro over and above DC-Chol/DOPE liposomes [1] | rank of DC-Chol analogues for in vivo gene delivery [2] | also measured
1 | CC(C)CCCC(C)C1CCC2C3CC=C4CC(OC(=O)NCCCNCCCN)CCC4(C)C3CCC12C (centres unmarked) [8e′, 4-aza-N′-cholesteryloxycarbonyl-1,7-heptanediamine] | most effective | significant improvements |  | 
2 | CC(C)CCC[C@@H](C)[C@H]1CC[C@H]2[C@@H]3CC=C4C[C@@H](OC(=O)NCCNCCCNCCN)CC[C@]4(C)[C@H]3CC[C@]12C [13a′, N′-cholesteryloxy-carbonyl-3,7-diaza-1,9-nonanediamine] | most effective | significant improvements |  | 
3 | CC(C)CCCC(C)C1CCC2C3CC=C4CC(OC(=O)NCCCNCCCCNCCCN)CCC4(C)C3CCC12C (centres unmarked) [13f′, N^1-cholesteryloxy-carbonyl-4,9-diaza-1,12-dodecanediamine] |  |  | best and most effective | 
4 | CCCCCCCCCCCCOCC(C[N+](C)(C)CCCN)OCCCCCCCCCCCC.[Br-] (centres unmarked) [GAP-DLRIE, (B1)-N-(3-aminopropyl)-N,N-dimethyl-2,3-bis-(dodecyloxy)-1-propanaminium bromide] |  |  |  | in vivo efficacy relative to plasmid DNA alone [3]: about 100 fold
5 | N^10-cholesteryloxycarbonyl-4,8,13-triaza-1,16-hexadecanediamine [17b′] | most effective | significant improvements |  | 
6 | N^15-cholesteryloxycarbonyl-3,7,12-triaza-1,15-pentadecanediamine [17a′] |  |  | best and most effective | effectiveness in mouse lung relative to DC-Chol 1 [2, 4]: about 100 fold; effectiveness in mouse lung relative to plasmid DNA alone [2, 4]: approx 500 fold
